{
  "source": "patent US12035716B2",
  "about": "“Treatment for seeds disinfection” (VILMORIN & CIE, priority 2013, dated 2024)",
  "key": {"[1]": {"system": "CGMMV", "settings": "watermelon seeds; vacuum infiltration 0.2% solution, 40 minutes, sinking fraction; 2000 seeds"}, "[2]": {"system": "cucumber seeds", "procedure": "(§1) CGMMV was tested by ELISA assay according to method 7-026 of the international rules for seed testing annex to chapter 7: seed health testing methods; International Seed Testing Association, Zurich, Switzerland, 2010. The germination test was performed on petri dishes (TOP) at 24 C incubator and root protrusion was counted at 4 days after seeding (TOP at 4 d)."}, "[3]": {"system": "melon seeds", "settings": "vacuum infiltration 0.5%"}, "[4]": {"system": "CGMMV", "procedure": "Samples of two commercial cucumber seed lots naturally infected by CGMMV in the production field were treated by standard disinfection or by vacuum infiltration methods. All treatments were done on 1500 seed in 300 ml solution for 40 minutes, followed by 40 minutes wash under running water. For the standard disinfection we used 2.5% Na-Dichloroisocyanurate solution and for the vacuum infiltration we used a solution containing 1.5% Na-Dichloroisocyanurate. The vacuum/de vacuum cycles were applied gradually starting at 500 mbar and increased by 100 mbar each cycle up to the maximum of 985 mbar. Then we continued vacuum/de-vacuum cycles at maximum vacuum pressure of 985 mbar for a total of 30 cycles. At the end of the treatment the floating seeds were discarded and the heavy fraction was collected, washed and dried for testing.\nas §1"}, "[5]": {"system": "cucumber seeds", "settings": "1.33% solution, VI disinfection, untreated 97", "procedure": "The germination test was performed on petri dishes (TOP) at 24 C incubator and root protrusion was counted at 4 days after seeding (TOP at 4 d)."}, "[6]": {"system": "CGMMV", "settings": "1.33% solution, VI disinfection; for Seed health lab results, ELISA average count: cut-off 0.130, untreated 0.841", "procedure": "In this case, a commercial cucumber seed lot (2 kg) naturally infected by CGMMV was treated. The infected seeds were put into a reactor containing 20 liters of Na-Dichloroisocyanurate at 1.33%. The vacuum/de-vacuum cycles (i.e. vacuum infiltration) were applied gradually starting at 500 mbar and increased by 50 mbar each cycle up to the maximum of 985 mbar. Then we continued vacuum/de-vacuum cycles at maximum vacuum pressure of 985 mbar for a total of 30 cycles. […] Both fractions were separately collected. This process took 45 minutes. CGMMV was tested by ELISA assay according to method 7-026 of the international rules for seed testing annex to chapter 7: seed health testing methods; International Seed Testing Association, Zurich, Switzerland, 2010."}, "[7]": {"system": "CGMMV", "procedure": "In this case, cucumber seeds have been obtained from a commercial seed lot, naturally infected by CGMMV in the production field.\nThe seeds were disinfected by standard method and by vacuum infiltration method. In this case, vacuum is applied at maximal pressure of 975-985 mbar from the beginning. […] The vacuum cycles continue until floating seeds are no longer sinking. The floating seeds are then removed and discarded. This process takes 15-20 minutes.\nIn this case two chemicals were used.\nWe also tested the effect of different concentration of Na-Dichloroisocyanurate applied by vacuum infiltration on CGMMV and germination (table II) treatment E is untreated control; treatment F is vacuum infiltration of Na-Dichloroisocyanurate 0.75%; treatment G is vacuum infiltration of Na-Dichloroisocyanurate 1.5% and treatment H is vacuum infiltration of Na-Dich loroisocyanurate 2.0%.\nCGMMV was tested by ELISA assay according to method 7-026 of the international rules for seed testing annex to chapter 7: seed health testing methods; International Seed Testing Association, Zurich, Switzerland, 2010.", "remark": "listed apart in the source"}, "[8]": {"system": "Acidovorax citrulli", "settings": "watermelon seeds", "excerpt": "(§2) The vacuum cycles continue until floating seeds are no longer sinking. The floating seeds are then removed and discarded."}, "[9]": {"system": "Acidovorax citrulli", "settings": "melon seeds", "excerpt": "as §2\nThe standard protocol can be obtained from the National Seed Health System, a program authorized by USDA-APHIS and administered by the Iowa State University Seed Science Center to accredit both private and public entities to perform certain activities needed to support the issuance of Federal phytosanitary certificates for the international movement of seed."}, "[10]": {"settings": "seed lot A, VI disinfection 1.5%, heavy fraction"}, "[11]": {"settings": "seed lot A, standard disinfection 2.5%"}, "[12]": {"settings": "seed lot B, VI disinfection 1.5%, heavy fraction"}, "[13]": {"settings": "seed lot B, standard disinfection 2.5%"}},
  "note": "Read-outs that look alike come from different tables or passages of the source.",
  "data": [
    {"compound": "O=c1nc([O-])n(Cl)c(=O)n1Cl.[Na+]", "note": "[Na-Dichloroisocyanurate]", "values": [
      {"measurement": "CGMMV by ELISA assay", "setting": "[1]", "value": "negative"},
      {"measurement": "% Germination TOP at 4 d", "setting": "[2]; [10]", "value": 100, "unit": "%"},
      {"measurement": "% Germination TOP at 4 d", "setting": "[2]; [11]", "value": 100, "unit": "%"},
      {"measurement": "% Germination TOP at 4 d", "setting": "[2]; [12]", "value": 100, "unit": "%"},
      {"measurement": "% Germination TOP at 4 d", "setting": "[2]; [13]", "value": 100, "unit": "%"},
      {"measurement": "Germination", "setting": "[3]; floating fraction, counted at 4 days", "value": 96, "unit": "%"},
      {"measurement": "Germination", "setting": "[3]; floating fraction, counted at 7 days", "value": 92, "unit": "%"},
      {"measurement": "Germination", "setting": "[3]; heavy fraction, counted at 4 days", "value": 99, "unit": "%"},
      {"measurement": "Germination", "setting": "[3]; heavy fraction, counted at 7 days", "value": 99, "unit": "%"},
      {"measurement": "ELISA 10 replicates results, Positive/total", "setting": "[4]; [10]", "value": "0/10"},
      {"measurement": "Remarks (seed health)", "setting": "[4]; [10]", "value": "Clean"},
      {"measurement": "ELISA 10 replicates results, Average count", "setting": "[4]; seed lot A, VI disinfection 1.5%, heavy fraction, cut-off 0.148, untreated 0.693", "value": 0.072},
      {"measurement": "ELISA 10 replicates results, Positive/total", "setting": "[4]; [11]", "value": "9/10"},
      {"measurement": "Remarks (seed health)", "setting": "[4]; [11]", "value": "Contaminated"},
      {"measurement": "ELISA 10 replicates results, Average count", "setting": "[4]; seed lot A, standard disinfection 2.5%, cut-off 0.174, untreated 0.693", "value": 0.238},
      {"measurement": "ELISA 10 replicates results, Positive/total", "setting": "[4]; [12]", "value": "0/10"},
      {"measurement": "Remarks (seed health)", "setting": "[4]; [12]", "value": "Clean"},
      {"measurement": "ELISA 10 replicates results, Average count", "setting": "[4]; seed lot B, VI disinfection 1.5%, heavy fraction, cut-off 0.148, untreated 0.737", "value": 0.075},
      {"measurement": "ELISA 10 replicates results, Positive/total", "setting": "[4]; [13]", "value": "4/10"},
      {"measurement": "Remarks (seed health)", "setting": "[4]; [13]", "value": "Contaminated"},
      {"measurement": "ELISA 10 replicates results, Average count", "setting": "[4]; seed lot B, standard disinfection 2.5%, cut-off 0.156, untreated 0.737", "value": 0.177},
      {"measurement": "% Germination TOP at 4 d", "setting": "[5]; floating fraction (5%)", "value": 62, "unit": "%"},
      {"measurement": "% Germination TOP at 4 d", "setting": "[5]; sinking fraction (95%)", "value": 94, "unit": "%"},
      {"measurement": "Remarks (seed health)", "setting": "[6]; floating fraction (5%)", "value": "Contami-"},
      {"measurement": "Seed health lab results, Positive/total replicates", "setting": "[6]; floating fraction (5%)", "value": "9/10"},
      {"measurement": "Seed health lab results, ELISA average count", "setting": "[6]; floating fraction (5%)", "value": 0.543},
      {"measurement": "Remarks (seed health)", "setting": "[6]; sinking fraction (95%)", "value": "Clean"},
      {"measurement": "Seed health lab results, Positive/total replicates", "setting": "[6]; sinking fraction (95%)", "value": "0/30"},
      {"measurement": "Seed health lab results, ELISA average count", "setting": "[6]; sinking fraction (95%)", "value": 0.081},
      {"measurement": "ELISA assay result (rate of extinction at A405)", "setting": "[7]; Na-Dichloroisocyanurate 0.4%, standard disinfection, negative control 0.13", "value": 0.45},
      {"measurement": "ELISA assay result (rate of extinction at A405)", "setting": "[7]; Na-Dichloroisocyanurate 0.4%, vacuum infiltration, negative control 0.13", "value": 0.25},
      {"measurement": "ELISA assay result (rate of extinction at A405)", "setting": "[7]; Na-Dichloroisocyanurate 0.75%, vacuum infiltration, untreated control 0.72, negative control 0.13", "value": 0.17},
      {"measurement": "ELISA assay result (rate of extinction at A405)", "setting": "[7]; Na-Dichloroisocyanurate 1.5%, vacuum infiltration, untreated control 0.72, negative control 0.13", "value": 0.13},
      {"measurement": "ELISA assay result (rate of extinction at A405)", "setting": "[7]; Na-Dichloroisocyanurate 2.0%, vacuum infiltration, untreated control 0.72, negative control 0.13", "value": 0.16},
      {"measurement": "BFB infection after standard disinfection", "setting": "[8]; standard disinfection process, 1.0% Na-Dichloroisocyanurate", "value": "still infected"},
      {"measurement": "BFB by sweat box assay", "setting": "[8]; vacuum infiltration, 0.2% solution, sinking fraction, 4200 seeds tested", "value": "negative"},
      {"measurement": "BFB infection after standard disinfection", "setting": "[9]; disinfected twice by standard protocol, 1% and 2%, 10 min", "value": "still heavily infested"},
      {"measurement": "BFB by sweat-box assay", "setting": "[9]; vacuum infiltration, 0.5% solution, floating fraction, 10,000 seeds", "value": "positive"},
      {"measurement": "BFB health test (PCR, seedling grow-out, sweat box)", "setting": "[9]; vacuum infiltration, 0.5% solution, sinking fraction, 40,000 seeds tested", "value": "None of the seeds was found infected"}
    ]}
  ]
}
